Assay results reported in patent US9765158B2, “Methods for preparation of fucose-linked site specific conjugates of proteins with toxins, adjuvants, detection labels and pharmacokinetic half life extenders” (Probiogen AG, priority 2011, dated 2017).

Key:
[1] = tested on: Antibody expressing CHO cells carrying the RMD transgene; assay: Fucose feeding experiment: rescue of core-fucosylation of secreted antibody, PSA lectin blotting; assay type: cell-based, Chinese hamster; settings: media and feeds supplemented with 0.03 mM; cells grown 12 days; supernatant lectin blot (FIG. 4)
Procedure: Currently, Fucose analogs are not routinely used in cell culture and are thus still expensive. In order to identify the most cost efficient fucose analogue concentration, we needed to determine the minimum required amount of fucose analogue that was sufficient to completely rescue the fucosylation status of heterologously expressed antibodies secreted from RMD-co-expressing cells. Antibody expressing CHO cells carrying the RMD transgene were cultured in medium containing varying concentrations of fucose and fed with a feed mix supplemented with that same amount of fucose. Cells were grown for 12 days before harvesting the cell culture supernatant. The supernatants were analysed by lectin blotting using biotinylated PSA lectin (pisum sativum) that specifically recognizes the alpha-1,6-linked core-fucose. Lectin blotting was conducted using the Vecstatin Elite ABC Kit (Vector Labs, USA) according to the manufacturers instructions.

[2] = molecular target: avidin (Gallus gallus, UniProt P02701); settings: avidin-biotin complex; cited from earlier work
avidin, sequence (P02701 25-152, species assumed): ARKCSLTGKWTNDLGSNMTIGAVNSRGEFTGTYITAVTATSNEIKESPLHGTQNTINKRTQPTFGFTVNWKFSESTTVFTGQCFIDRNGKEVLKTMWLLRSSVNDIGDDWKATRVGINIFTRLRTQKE

| Structure (SMILES) | rescue of core-fucosylation [1] | Ka [2] [M⁻¹] |
| --- | --- | --- |
| C[C@H](O)[C@@H](O)[C@@H](O)[C@H](O)C=O [Fucose] | almost complete rescue |  |
| O=C(O)CCCC[C@@H]1SC[C@@H]2NC(=O)N[C@@H]21 [biotin] |  | 1015 |
